# Molecular target: T1, human CCR1 (Homo sapiens, UniProt P32246)
# T1 sequence (P32246 1-355): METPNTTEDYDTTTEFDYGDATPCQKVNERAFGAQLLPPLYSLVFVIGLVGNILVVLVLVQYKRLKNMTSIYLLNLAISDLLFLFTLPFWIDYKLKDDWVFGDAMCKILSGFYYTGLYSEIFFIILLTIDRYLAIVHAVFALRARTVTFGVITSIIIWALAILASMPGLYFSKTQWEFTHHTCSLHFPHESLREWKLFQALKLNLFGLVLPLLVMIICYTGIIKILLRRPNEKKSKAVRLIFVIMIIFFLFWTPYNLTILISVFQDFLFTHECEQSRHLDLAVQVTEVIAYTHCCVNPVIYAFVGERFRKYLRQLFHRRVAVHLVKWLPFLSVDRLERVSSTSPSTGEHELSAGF
# Test: CCR1 binding protocol (SPA, [125I]-MIP-1α displacement)
# Conditions: cell membrane expressing human CCR1, 0.1 nM [125I]-MIP-1α, 4 hours at ambient temperature; read-out: Relative potency (IC50)
# Procedure, shortened: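 Displacement of 0.1 nM [125I]-MIP-1α (final) from membranes expressing human CCR1 was measured by scintillation proximity after 4 h at ambient temperature. Conditions: pH 7.4 Tris buffer with 0.1% BSA and MnCl, and 0.5 μg membrane per well. Compounds were tested as a 10-step ½-log series from a 10 mM DMSO stock to derive IC50.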
row,SMILES,IC50 [nM]
1,Cc1cc(Cl)cc(C)c1N/C(=N/C#N)N1CCC[C@@H]1c1nnc(C)n1Cc1ccc(Cl)cc1 [Compound 198],< 50
2,Cc1nnc([C@H]2CCCN2C(=O)Nc2c(Cl)ncnc2Cl)n1Cc1ccc(Cl)cc1 [Compound 201],< 50
3,Cc1nnc([C@H]2CCCN2C(=O)NCc2ccc(Cl)cc2Cl)n1Cc1ccc(Cl)cc1 [Compound 202],< 50
4,Cc1nnc([C@H]2CCCN2C(=O)NC2(c3ccccc3)CC2)n1Cc1ccc(Cl)cc1 [Compound 204],< 50
5,O=C(NCc1ccc(C(F)(F)F)cc1)N1CCC[C@@H]1c1nnc(Cl)n1Cc1ccc(Cl)cc1 [Compound 205],< 50
6,Cc1cc(C)c(NC(=O)N2CCC[C@@H]2c2nnc(C)n2Cc2ccc(Cl)cc2)c(C(N)=O)c1 [Compound 206],< 50
7,Cc1ccc(C(=O)N(C)C)cc1NC(=O)N1CCC[C@@H]1c1nnc(C)n1Cc1ccc(Cl)cc1 [Compound 208],< 50
8,CCc1nnc([C@H]2CCCN2C(=O)N[C@H]2CCOc3cc(C(F)(F)F)ccc32)n1Cc1ccc(Cl)cc1 [Compound 209],< 50
9,CNC(=O)c1cc(C)cc(C)c1NC(=O)N1CCC[C@@H]1c1nnc(C)n1Cc1ccc(Cl)cc1 [Compound 210],< 50
10,Cc1nnc([C@H]2CCCN2C(=O)N[C@H](C)c2ccccc2)n1Cc1ccc(Cl)cc1 [Compound 213],< 50
11,CC[C@H](NC(=O)N1CCC[C@@H]1c1nnc(C)n1Cc1ccc(Cl)cc1)c1c(C)noc1C [Compound 214],< 50
12,COC(=O)c1ccc(NC(=O)N2CCC[C@@H]2c2nnc(C)n2Cc2ccc(Cl)cc2)c(C)c1 [Compound 215],< 50
13,CNC(=O)c1ccc(C)c(NC(=O)N2CCC[C@@H]2c2nnc(C)n2Cc2ccc(Cl)cc2)c1 [Compound 216],< 50
14,Cc1nnc([C@H]2CCCN2C(=O)NC(C)(C)c2ccc(C(F)(F)F)cc2)n1Cc1ccc(Cl)cc1 [Compound 220],< 50
15,Cc1nnc([C@H]2CCCN2C(=O)NCc2ccc(C(F)(F)F)nc2)n1Cc1ccc(Cl)cc1 [Compound 221],50 to 500
16,Cc1ncccc1NC(=O)N1CCC[C@@H]1c1nnc(C)n1Cc1ccc(Cl)cc1 [Compound 223],50 to 500

row,SMILES,IC50 [nM]
1,Cc1nnc([C@H]2CCCN2C(=O)NCc2ccccc2)n1Cc1ccc(Cl)cc1 [Compound 224],50 to 500
2,Cc1ccncc1NC(=O)N1CCC[C@@H]1c1nnc(C)n1Cc1ccc(Cl)cc1 [Compound 225],50 to 500
3,Cc1nnc([C@H]2CCCN2C(=O)NCc2ccc(F)cc2)n1Cc1ccc(Cl)cc1 [Compound 228],50 to 500
4,CNC(=O)c1cccc(NC(=O)N2CCC[C@@H]2c2nnc(C)n2Cc2ccc(Cl)cc2)c1C [Compound 231],50 to 500
5,CC(=O)N1CCC[C@H](NC(=O)N2CCC[C@@H]2c2nnc(C)n2Cc2ccc(Cl)cc2)C1 [Compound 232],50 to 500
6,Cc1cccc(C(=O)N(C)C)c1NC(=O)N1CCC[C@@H]1c1nnc(C)n1Cc1ccc(Cl)cc1 [Compound 233],50 to 500
7,CNC(=O)c1ccc(NC(=O)N2CCC[C@@H]2c2nnc(C)n2Cc2ccc(Cl)cc2)c(C)c1 [Compound 234],50 to 500
8,O=C(N[C@H]1CCOc2cc(C(F)(F)F)ccc21)N1CCC[C@@H]1c1nnc(C(F)(F)F)n1Cc1ccc(Cl)cc1 [Compound 235],50 to 500
9,Cc1c(NC(=O)N2CCC[C@@H]2c2nnc(C)n2Cc2ccc(Cl)cc2)cccc1C(=O)N(C)C [Compound 238],50 to 500
10,Cc1nnc([C@H]2CCCN2C(=O)Nc2ccc(Cl)cn2)n1Cc1ccc(Cl)cc1 [Compound 243],50 to 500
11,Cc1ccc(NC(=O)N2CCC[C@@H]2c2nnc(C)n2Cc2ccc(Cl)cc2)c(C(N)=O)c1 [Compound 244],50 to 500
12,Cc1c(NC(=O)N2CCC[C@@H]2c2nnc(C)n2Cc2ccc(Cl)cc2)cccc1C(N)=O [Compound 247],500 to 5000
13,COC(=O)c1cc(C)ccc1NC(=O)N1CCC[C@@H]1c1nnc(C)n1Cc1ccc(Cl)cc1 [Compound 248],500 to 5000
14,Cc1nnc([C@H]2CCCN2C(=O)NC(C)C)n1Cc1ccc(Cl)cc1 [Compound 252],500 to 5000
15,Cc1nnc([C@H]2CCCN2C(=O)Nc2ccccn2)n1Cc1ccc(Cl)cc1 [Compound 253],500 to 5000

# The remaining lines, values ahead:
row,IC50 [nM],SMILES
1,< 50,Cc1nnc([C@H]2CCCN2C(=O)N[C@H]2CCOc3c2cccc3C(F)(F)F)n1Cc1ccc(Cl)cc1 [Compound 199]
2,< 50,Cc1noc(C)c1NC(=O)N1CCC[C@@H]1c1nnc(C)n1Cc1ccc(Cl)cc1 [Compound 200]
3,< 50,CCc1nnc([C@H]2CCCN2C(=O)Nc2c(C)noc2-c2ccccc2)n1Cc1ccc(Cl)cc1 [Compound 203]
4,< 50,Cc1nnc([C@H]2CCCN2C(=O)N[C@H]2CCOc3cc(C#N)ccc32)n1Cc1ccc(Cl)cc1 [Compound 207]
5,< 50,COC(=O)c1cc(C)cc(C)c1NC(=O)N1CCC[C@@H]1c1nnc(C)n1Cc1ccc(Cl)cc1 [Compound 211]
6,< 50,CNC(=O)c1cccc(C)c1NC(=O)N1CCC[C@@H]1c1nnc(C)n1Cc1ccc(Cl)cc1 [Compound 212]
7,< 50,COC(=O)c1cccc(C)c1NC(=O)N1CCC[C@@H]1c1nnc(C)n1Cc1ccc(Cl)cc1 [Compound 217]
8,< 50,Cc1nnc([C@H]2CCCN2C(=O)N[C@@H](C)c2ccc(F)cc2)n1Cc1ccc(Cl)cc1 [Compound 218]
9,< 50,Cc1cccc(C(N)=O)c1NC(=O)N1CCC[C@@H]1c1nnc(C)n1Cc1ccc(Cl)cc1 [Compound 219]
10,50 to 500,Cc1onc(-c2ccccc2)c1N/C(=N/C#N)N1CCC[C@@H]1c1nnc(C)n1Cc1ccc(Cl)cc1 [Compound 222]
11,50 to 500,Cc1noc(-c2ccccc2)c1NC(=O)N1CCC[C@@H]1c1nnc(C(F)(F)F)n1Cc1ccc(Cl)cc1 [Compound 226]
12,50 to 500,Cc1nnc([C@H]2CCCN2C(=O)N[C@@H](C)c2ccccc2)n1Cc1ccc(Cl)cc1 [Compound 227]
13,50 to 500,Cc1ccc(C(N)=O)cc1NC(=O)N1CCC[C@@H]1c1nnc(C)n1Cc1ccc(Cl)cc1 [Compound 229]
14,50 to 500,Cc1cc(C(=O)N(C)C)ccc1NC(=O)N1CCC[C@@H]1c1nnc(C)n1Cc1ccc(Cl)cc1 [Compound 236]
15,50 to 500,Cc1nnc([C@H]2CCCN2C(=O)Nc2ccncc2)n1Cc1ccc(Cl)cc1 [Compound 237]
16,50 to 500,Cc1cc(C)c(NC(=O)N2CCC[C@@H]2c2nnc(C)n2Cc2ccc(Cl)cc2)c(C(=O)N(C)C)c1 [Compound 239]
17,50 to 500,Cc1cc(C(=O)O)ccc1NC(=O)N1CCC[C@@H]1c1nnc(C)n1Cc1ccc(Cl)cc1 [Compound 240]
18,50 to 500,Cc1ccc(C(=O)O)cc1NC(=O)N1CCC[C@@H]1c1nnc(C)n1Cc1ccc(Cl)cc1 [Compound 241]
19,50 to 500,Cc1c(NC(=O)N2CCC[C@@H]2c2nnc(C)n2Cc2ccc(Cl)cc2)cccc1C(=O)O [Compound 242]
20,500 to 5000,Cc1nnc([C@H]2CCCN2C(=O)Nc2cccnc2)n1Cc1ccc(Cl)cc1 [Compound 245]
21,500 to 5000,Cc1nnc([C@H]2CCCN2C(=O)NC2CCCC2)n1Cc1ccc(Cl)cc1 [Compound 246]
22,500 to 5000,O=C(NCc1ccc(C(F)(F)F)cc1)N1CCC[C@@H]1c1nnc(C(F)(F)F)n1Cc1ccc(Cl)cc1 [Compound 249]
23,500 to 5000,Cc1nnc([C@H]2CCCN2C(=O)Nc2cncnc2)n1Cc1ccc(Cl)cc1 [Compound 250]
24,500 to 5000,Cc1cccc(C(=O)O)c1NC(=O)N1CCC[C@@H]1c1nnc(C)n1Cc1ccc(Cl)cc1 [Compound 251]

# — patent US8288371B2, “Ortho pyrrolidine, benzyl-substituted heterocycle CCR1 antagonists for autoimmune diseases and inflammation” (Pharmacopeia, LLC, priority 2007, dated 2012)
